Key:
IG-PARP-7 (I631G PARP-7) = biological target: T1, IG-PARP-7 (I631G PARP-7) (Homo sapiens, UniProt Q7Z3E1, I631G); experiment: Labeling by orthogonal NAD+ analogs in HEK 293T lysates expressing GFP-IG-PARP-7 (click with biotin-azide, Streptavidin-HRP); type: biochemical; conditions: HEK 293 T cell lysates, 100 µM NAD+ analog
T1 construct: expressed in transfected cells; host or cells: HEK 293T (lysate)
Description: Identifying the protein targets of PARP-7 is a critical first step toward unraveling its function in cells. In previous work we have developed an engineered enzyme—modified substrate strategy for identifying relevant targets of individual PARP family members ([Carter-O'Connell et al., 2014]; [Carter-O'Connell et al., 2016]; [Carter-O'Connell and Cohen, 2015]; [Carter-O'Connell et al., 2018]). This chemical genetic (CG) method uses engineered PARPs and an orthogonal NAD^+ analogue that contains a clickable handle (e.g. an alkyne) that is located at the N-6 position of the adenine ring (5-Bn-6-a-NAD^+). […] Importantly, 5-Bn-6-a-NAD^+ is not used by wild-type (WT) PARPs and in this way is orthogonal to native NAD^+. […] We therefore sought a new orthogonal NAD^+ analogue that would serve as an efficient substrate for floor position engineered PARP-7, I631G PARP-7 (IG-PARP-7) (Figure 1a).
Figure 1. A chemical genetic strategy for identifying the direct MARylation targets of PARP-7. (a) Schematic of chemical genetic approach for identifying direct targets of PARP-7. (b) Crystal structure of human PARP1 bound to the non-hydrolyzable NAD^+ analog benzamide adenine dinucleotide (BAD). PDB: 6bhv. […] Following copper-catalyzed click chemistry with biotin-azide, proteins were resolved by SDS-PAGE and biotinylated proteins were detected by Western blot detection using Streptavidin-HRP. […]

PARP1FL = PARP1FL (Homo sapiens, UniProt P09874); experiment: ADP-ribosylation plate assay, PARP1FL
Chain of PARP1FL (P09874 whole entry): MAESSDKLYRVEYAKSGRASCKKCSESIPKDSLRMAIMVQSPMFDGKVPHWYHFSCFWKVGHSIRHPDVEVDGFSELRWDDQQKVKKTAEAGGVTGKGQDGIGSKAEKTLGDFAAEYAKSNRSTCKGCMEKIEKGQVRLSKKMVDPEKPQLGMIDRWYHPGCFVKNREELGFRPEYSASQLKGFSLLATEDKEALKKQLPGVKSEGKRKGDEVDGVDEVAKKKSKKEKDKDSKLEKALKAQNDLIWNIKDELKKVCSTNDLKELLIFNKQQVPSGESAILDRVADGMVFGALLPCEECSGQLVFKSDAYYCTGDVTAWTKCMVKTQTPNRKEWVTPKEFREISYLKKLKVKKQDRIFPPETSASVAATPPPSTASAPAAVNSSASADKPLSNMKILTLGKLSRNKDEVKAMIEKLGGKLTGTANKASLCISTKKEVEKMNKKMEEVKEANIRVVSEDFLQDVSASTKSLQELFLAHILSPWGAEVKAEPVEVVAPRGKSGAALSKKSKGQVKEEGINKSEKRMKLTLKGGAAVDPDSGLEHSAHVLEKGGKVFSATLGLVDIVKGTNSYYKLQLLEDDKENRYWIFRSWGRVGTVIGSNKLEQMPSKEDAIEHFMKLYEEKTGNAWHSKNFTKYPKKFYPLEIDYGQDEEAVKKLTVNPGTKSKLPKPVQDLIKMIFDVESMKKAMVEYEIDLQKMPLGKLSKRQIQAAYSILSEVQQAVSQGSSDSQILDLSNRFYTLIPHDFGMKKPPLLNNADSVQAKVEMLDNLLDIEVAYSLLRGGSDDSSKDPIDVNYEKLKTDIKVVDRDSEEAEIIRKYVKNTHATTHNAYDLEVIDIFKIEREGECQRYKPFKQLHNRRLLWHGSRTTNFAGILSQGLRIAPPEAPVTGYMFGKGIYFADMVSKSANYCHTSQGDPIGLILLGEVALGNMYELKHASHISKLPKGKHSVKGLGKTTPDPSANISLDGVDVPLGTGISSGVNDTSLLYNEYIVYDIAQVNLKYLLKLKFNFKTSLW

PARP14wwe-cat. = biological target: T2, PARP14wwe-cat. (Homo sapiens, UniProt Q460N5); experiment: ADP-ribosylation plate assay, PARP14wwe-cat.
T2 sequence (Q460N5 1523-1801 limits assumed): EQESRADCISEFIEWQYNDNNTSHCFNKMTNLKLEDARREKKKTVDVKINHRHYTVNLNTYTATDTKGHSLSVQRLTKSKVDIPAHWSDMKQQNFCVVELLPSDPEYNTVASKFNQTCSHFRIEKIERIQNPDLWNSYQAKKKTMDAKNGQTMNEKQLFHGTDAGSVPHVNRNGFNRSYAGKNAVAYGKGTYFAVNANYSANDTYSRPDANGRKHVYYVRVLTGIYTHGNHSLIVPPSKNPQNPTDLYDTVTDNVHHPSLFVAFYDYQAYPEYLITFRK

PARP15cat = biological target: T3, PARP15cat (Homo sapiens, UniProt Q460N3); experiment: ADP-ribosylation plate assay, PARP15cat
T3 sequence (Q460N3 482-678 limits assumed): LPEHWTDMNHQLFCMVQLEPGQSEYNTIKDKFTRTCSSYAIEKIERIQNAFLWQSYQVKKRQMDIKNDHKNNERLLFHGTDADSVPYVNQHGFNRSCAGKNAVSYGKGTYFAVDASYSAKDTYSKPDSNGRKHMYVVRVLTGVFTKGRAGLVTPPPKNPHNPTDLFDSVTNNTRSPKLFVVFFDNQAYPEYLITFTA

T1 sequence (Q7Z3E1 whole entry I631G): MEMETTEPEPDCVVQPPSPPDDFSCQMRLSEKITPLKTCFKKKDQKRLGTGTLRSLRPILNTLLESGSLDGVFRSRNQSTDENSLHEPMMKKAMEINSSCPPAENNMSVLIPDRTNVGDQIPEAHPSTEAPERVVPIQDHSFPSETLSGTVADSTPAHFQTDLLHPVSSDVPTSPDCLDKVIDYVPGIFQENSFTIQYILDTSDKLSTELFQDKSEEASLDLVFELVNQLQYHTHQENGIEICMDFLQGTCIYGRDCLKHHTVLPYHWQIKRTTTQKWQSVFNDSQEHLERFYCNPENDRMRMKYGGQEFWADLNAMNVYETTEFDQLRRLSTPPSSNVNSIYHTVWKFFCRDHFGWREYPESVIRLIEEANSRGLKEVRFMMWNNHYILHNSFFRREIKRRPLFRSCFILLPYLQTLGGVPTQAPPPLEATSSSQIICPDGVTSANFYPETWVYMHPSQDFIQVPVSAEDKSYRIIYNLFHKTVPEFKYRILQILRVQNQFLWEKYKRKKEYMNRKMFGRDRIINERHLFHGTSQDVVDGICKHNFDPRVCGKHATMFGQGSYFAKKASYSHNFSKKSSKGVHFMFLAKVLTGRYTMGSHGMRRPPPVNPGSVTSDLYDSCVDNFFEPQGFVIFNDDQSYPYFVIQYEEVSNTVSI

Row | Compound | substrate for floor position engineered PARP-7 (IG-PARP-7) (IG-PARP-7 (I631G PARP-7)) | IC50 (PARP1FL) [nM] | IC50 (PARP14wwe-cat.) [nM] | IC50 (PARP15cat) [nM]
1 | C#Cc1nc(N)c2ncn(C3OC(COP(=O)(O)OP(=O)([O-])OCC4OC([n+]5cc(Cc6ccccc6)cc(C(N)=O)c5)C(O)C4O)C(O)C3O)c2n1 (stereo not shown) [5-Bn-2-e-NAD^+, 5-benzyl-2-ethynyl-NAD^+] | much better substrate | – | – | –
2 | N#Cc1ccc(N2CCN(C(=O)c3cc(Cc4n[nH]c(=O)c5ccccc45)ccc3F)CC2)nc1 [Phthal01, 6-(4-(2-fluoro-5-((4-oxo-3,4-dihydrophthalazin-1-yl)methyl)benzoyl)piperazin-1-yl)nicotinonitrile] | – | 21 | > 10000 | 2000 ± 300
